“Also recorded” adds a separate entry of the source. Non-standard residues stand in square brackets, D forms with d. No end group written: not given here.
Legend:
[1] = test system: NBI-5788- or MBP-reactive TCL from MS patients; assay: Cytokine secretion (IFN-γ, IL-5) by TCL from MS patients, ELISA; format: in vivo, human
Procedure: To more fully characterize the nature of the immune response generated following APL administration, proliferating NBI-5788- or MBP-reactive TCL were established from untreated or NBI-5788-treated MS patients. […] Levels of Th2 cytokine IL-5 and Th1 cytokine IFN-γ were measured in culture supernatants collected 48 hours after stimulation with the selecting antigen, either NBI-5788 or whole MBP. Cytokines produced by T cell lines were assayed by ELISA. To measure cytokine levels, a sandwich ELISA method was used as follows: Nunc Maxisorp microtiter plates (Nalge Nunc, Denmark) were coated with capture mAb (Pharmingen, San Diego, Calif.) at 2 μg/ml for IL-4, IL-10, IL-13 and IFN-γ or at 1 μg/ml for IL-5. The capture mAb was diluted with 0.1 M NaHCO3 dispensed on the plate and incubated at 4° C. overnight. Plates were then blocked for at least 30 minutes at RT with 1% BSA (Sigma, St. Louis, Mo.) for IL-4, IL-5, IL-10 and IL-13 or 1% casein (Sigma) for IFN-γ. Standards were serially diluted (1000-1 pg/ml for IL-4 and 4000-5.5 pg/ml for IL-5, IL-10, IL-13 and IFN-γ) in blocking buffer and added to the plate. Samples were diluted at least 1:2 in blocking buffer and added to the plate. The plates were incubated at room temperature for one hour. The plates were washed and the biotinylated detection mAb (Pharmingen) was added to the plates at 1 μg/ml for IL-5 and IFN-γ or 2 μg/ml for IL-4, L-10, and IL-13. The plates were incubated for 1.5 hours at RT. After washing the plates streptavidin-peroxidase (Pierce, Rockford, Ill.) was added at 1 μg/ml for IL-5, IL-10, and IL-13 or 2 μg/ml for IL-4 and IFN-γ. The plates were incubated for 20-30 minutes. After washing thoroughly, TMB (Calbiochem, San Diego, Calif.) was added and the color was allowed to develop. The reaction was stopped by 0.2N H2SO4 and absorbance at 450 nm was determined. The association between cytokine phenotype and NBI-5788 treatment was evaluated by χ^2 contingency analysis. Mean cytokine secretion levels were compared using MannWhitney U test for non-parametric data. Probability values≦0.05 were considered significant.

[2] = test system: peripheral blood T cells of MS patients; assay: Frequency of antigen-reactive peripheral blood T cells after NBI-5788 treatment of MS patients (split-well); format: in vivo, human
Procedure: MS patients studied were those participating in phase I clinical trials using NBI-5788 administered subcutaneously (5, 10 or 20 mg) weekly for four weeks. Patients had MRI evaluations performed at baseline and at 6 and 12 weeks. All but 1 patient had secondary or primary progressive disease (SP or PP, respectively). For patients in group A, immunologic evaluations involving use of NBI-5788 as antigen could be performed only 9 months after completion of the treatment phase of the study. For patients in group B, immunologic evaluation was performed just prior to entry into the study (pre-treatment) and after 3 months following completion of the 1 month treatment phase. Two additional patients with SP MS, one with relapsing remitting (RR) MS and 3 normal controls were also studied.
Immune response to the peptide analog was assessed by measuring the frequency of proliferating peripheral blood T cells using a split-well microtiter method (i.e., number of positive wells {Δ cpm >1000, stimulation index>3} divided by the total number of wells assayed). Peripheral blood mononuclear cells (PBMC) were isolated from venous blood by Ficoll-Hypaque density gradient centrifugation, washed twice and resuspended in complete tissue culture medium (Iscove's modification of Dulbecco's medium containing 10% heat-inactivated, pooled, human A-B serum, 2 mM L-glutamine, 100 U/ml penicillin/streptomycin and 50 μg/ml gentamycin). PBMC from each patient were seeded at 10^5/well in 96 well, U-bottom microtiter plates containing 25 μg/ml whole MBP, 10 μg/ml NBI-5788 or medium alone in a volume of 200 μl. Three days later supernatants were collected and frozen at −80° C. and fresh medium containing IL-2 (10 U/ml) was added. IL-2-containg medium was refreshed on Day 7 and Day 11. On Day 14, the frequency of antigen response was determined by the “split well” technique. Briefly, cells from one primary well were split into replicate experimental wells in the presence of 10^5 freshly isolated autologous, irradiated peripheral blood mononuclear cells (APCs): one containing the original antigen (25 μg/ml) and one without antigen. Two days later supernatants were collected and the wells pulsed with 1 µCi/well [^3H]-thymidine ([…]) for the final 18 hours of culture. ^3H-Thymidine uptake was measured in a beta counter. […] The association between T cell frequency and NBI-5788 treatment was evaluated by χ^2 contingency analysis.

Substance: MBP(83-99) (83E>a, 84N>K, 89F>L, and 91K>A) ([dA]KPVVHLFANIVTPRTP) [NBI-5788]
- MBP-reactive TCL from APL-treated MS patients that secreted more IL-5 than IFN-γ ([1]; 13 of 23 TCL): 56%
- APL-reactive TCL from APL-treated MS patients that secreted more IL-5 than IFN-γ ([1]; 19 of 32 TCL): 59%
- change of mean IFN-γ secretion of MBP-reactive and APL-reactive T cell lines, APL-treated compared to non-treated MS patients ([1]; FIGS. 31A and 31B): significant (p<0.05) decrease
- cytokine phenotype of NBI-5788-reactive TCL from APL-treated versus untreated MS patients ([1]; secreting more IL-5 than IFN-γ): more Th2-like
- change of mean IL-5 secretion of TCL, APL-treated compared to non-treated MS patients ([1]; significant (p<0.05) for APL-reactive TCL, but not for MBP-reactive TCL): concomitant increase
- mean frequency of NBI-5788-reactive T cells after treatment ([2]; 5, 10 or 20 mg, four times weekly, seven MS patients): 35.8±12.8%
- mean frequency of MBP-reactive T cells after treatment ([2]; after treatment with NBI-5788 (n=7)): 16.4±5.7%
- change of frequency of MBP-reactive T cells following administration ([2]; human, in vivo): does not change markedly
- change of NBI-5788-reactive T cells in peripheral blood after subcutaneous administration versus untreated MS patients ([2]; human, in vivo, sc): significant (χ^2=82.7, p<0.001) increase; also recorded: strongly induced
